Results as given in PMC2713499 (Biochemistry, 2009).

System: PC-3-Bcl-2 prostate cancer cells
Assay: In vitro cytotoxicity assay
Assay type: cell-based, Human
Conditions: for cytotoxic effects: up to 100,000 nM, PC-3-Bcl-2, in words; for cytotoxic effects / inhibition of proliferation and viability compared to control: 96 h; for inhibition of proliferation and viability compared to control / % surviving fraction compared to mock: MTT, PC-3-Bcl-2; for % surviving fraction compared to mock: 96 hours

| Structure (SMILES) | cytotoxic effects | inhibition of proliferation and viability compared to control (0.1 mM) [%] | % surviving fraction compared to mock (0.1 mM) [%] | inhibition of proliferation and viability compared to control (0.01 mM) [%] |
| --- | --- | --- | --- | --- |
| CC(=O)Nc1nnc(S(N)(=O)=O)s1 [AZM, N-(5-(aminosulfonyl)-1,3,4-thiadiazol-2-yl)-acetamide] | no cytotoxic effects | – | – | – |
| NS(=O)(=O)c1nnc(NS(=O)(=O)c2ccccc2)s1 [BZM, 1,3,4-Thiadiazole-2-sulfonamide, 5-((phenylsulfonyl)amino)] | no cytotoxic effects | – | – | – |
| NS(=O)(=O)c1nnc(-c2ccccc2Cl)s1 [CHL, 5-[o-chlorophenyl]-1,3,4-thiadiazole-2-sulfonamide] | – | 57 | 43 | – |
| CCOc1ccc2nc(S(N)(=O)=O)sc2c1 [EZM, 6-ethoxybenzothiazole-2-sulfonamide] | no cytotoxic effects | – | – | – |
| CC(=O)/N=c1/sc(S(N)(=O)=O)nn1C [MZM, N-(3-methyl-5-sulfamoyl-3H-1,3,4-thiadiazol-2-ylidene)] | – | 32 | 68 | 29 |
